Assay results as given in patent US11944622B2 (Annapurna Bio, Inc., priority 2018, dated 2024).
pEC50: −log10 of the molar value.

Target: T1, APJ Receptor (Homo sapiens, UniProt P35414)
T1 sequence (P35414 1-380): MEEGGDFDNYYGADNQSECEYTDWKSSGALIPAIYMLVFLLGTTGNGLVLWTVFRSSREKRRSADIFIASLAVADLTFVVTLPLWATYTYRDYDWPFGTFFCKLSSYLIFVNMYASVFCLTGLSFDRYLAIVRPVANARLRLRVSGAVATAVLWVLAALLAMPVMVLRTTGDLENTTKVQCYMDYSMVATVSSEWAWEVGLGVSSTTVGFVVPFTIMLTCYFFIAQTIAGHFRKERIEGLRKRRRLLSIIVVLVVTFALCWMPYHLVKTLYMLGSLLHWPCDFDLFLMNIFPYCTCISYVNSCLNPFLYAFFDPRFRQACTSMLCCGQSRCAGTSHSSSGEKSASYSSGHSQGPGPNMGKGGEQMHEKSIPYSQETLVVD
Experiment: APJ cAMP assay (DiscoverX enzyme fragment complementation; inhibition of forskolin-stimulated cAMP)
Type: cell-based
Settings: CHO-K1 cell line stably expressing the APJ Receptor; EC80 forskolin; 30 minutes at 37° C.; read-out: Potency Range (APJ cAMP EC50)
Summary of the method: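 CHO-K1 cells stably expressing APJ incubated with compound plus EC80 forskolin for 30 min at 37° C. cAMP detected by β-galactosidase enzyme fragment complementation with chemiluminescent read-out; % activity calculated relative to vehicle and maximal controls.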

| Structure (SMILES) | pEC50 |
| --- | --- |
| CCOc1cccc(-c2nc3nc(Cl)c(NS(=O)(=O)c4ccc(F)cn4)nc3n2-c2c(OC)cccc2OC)n1 [Example 99, N-(5-Chloro-1-(2,6-dimethoxyphenyl)-2-(6-ethoxypyridin-2-yl)-1H-imidazo[4,5-b]pyrazin-6-yl)-5-fluoropyridine-2-sulfonamide] | 7.00 to 9.00 |
| CCOc1cccc(-c2nc3nc(Cl)c(NS(=O)(=O)c4ccccn4)nc3n2-c2c(OC)cccc2OC)n1 [Example 102, N-(5-Chloro-1-(2,6-dimethoxyphenyl)-2-(6-ethoxypyridin-2-yl)-1H-imidazo[4,5-b]pyrazin-6-yl)pyridine-2-sulfonamide] | 7.00 to 9.00 |
| CCOc1cccc(-c2nc3nc(Cl)c(NS(=O)(=O)c4ccc(CF)cc4)nc3n2-c2c(OC)cccc2OC)n1 [Example 103, N-(5-Chloro-1-(2,6-dimethoxyphenyl)-2-(6-ethoxypyridin-2-yl)-1H-imidazo[4,5-b]pyrazin-6-yl)-4-(fluoromethyl)benzenesulfonamide] | > 9.00 |
| CCOc1cccc(-c2nc3nc(Cl)c(NS(=O)(=O)c4cccnc4)nc3n2-c2c(OC)cccc2OC)n1 [Example 104, N-(5-Chloro-1-(2,6-dimethoxyphenyl)-2-(6-ethoxypyridin-2-yl)-1H-imidazo[4,5-b]pyrazin-6-yl)pyridine-3-sulfonamide] | 7.00 to 9.00 |
| CCOc1cccc(-c2nc3nc(Cl)c(NS(=O)(=O)c4ccc(C(F)F)cc4)nc3n2-c2c(OC)cccc2OC)n1 [Example 106, N-(5-Chloro-1-(2,6-dimethoxyphenyl)-2-(6-ethoxypyridin-2-yl)-1H-imidazo[4,5-b]pyrazin-6-yl)-4-(difluoromethyl)benzenesulfonamide] | 7.00 to 9.00 |
| CCOc1cccc(-c2nc3nc(Cl)c(NS(=O)(=O)N4CCC(O)CC4)nc3n2-c2c(OC)cccc2OC)n1 [Example 116, N-(5-Chloro-1-(2,6-dimethoxyphenyl)-2-(6-ethoxypyridin-2-yl)-1H-imidazo[4,5-b]pyrazin-6-yl)-4-hydroxypiperidine-1-sulfonamide] | 7.00 to 9.00 |
| CCOc1cccc(-c2nc3nc(Cl)c(NS(C)(=O)=O)nc3n2-c2c(OC)cncc2OC)n1 [Example 117, N-(5-Chloro-1-(3,5-dimethoxypyridin-4-yl)-2-(6-ethoxypyridin-2-yl)-1H-imidazo[4,5-b]pyrazin-6-yl)methanesulfonamide] | 7.00 to 9.00 |
| CCOc1cccc(-c2nc3nc(Cl)c(NS(=O)(=O)C4CC4)nc3n2-c2c(OC)cncc2OC)n1 [Example 118, N-(5-Chloro-1-(3,5-dimethoxypyridin-4-yl)-2-(6-ethoxypyridin-2-yl)-1H-imidazo[4,5-b]pyrazin-6)cyclopropanesulfonamide] | 7.00 to 9.00 |
| CCOc1cccc(-c2nc3nnc(NS(=O)(=O)C4CC4)cc3n2-c2c(OC)cccc2OC)n1 [Example 119, N-(7-(2,6-Dimethoxyphenyl)-8-(6-ethoxypyridin-2-yl)-7H-imidazo[4,5-c]pyridazinyl)cyclopropanesulfonamide] | 7.00 to 9.00 |
| CCOc1cccc(-c2nc3nnc(NS(=O)(=O)c4ccc(F)cn4)cc3n2-c2c(OC)cccc2OC)n1 [Example 120, N-(7-(2,6-Dimethoxyphenyl)-8-(6-ethoxypyridin-2-yl)-7H-imidazo[4,5-c]pyridazinyl)-5-fluoropyridine-2-sulfonamide] | > 9.00 |
| CCOc1cccc(-c2nc3nnc(NS(=O)(=O)N4CCOCC4)cc3n2-c2c(OC)cccc2OC)n1 [Example 121, N-(7-(2,6-Dimethoxyphenyl)-8-(6-ethoxypyridin-2-yl)-7H-imidazo[4,5-c]pyridazinyl)morpholine-4-sulfonamide] | 7.00 to 9.00 |
| CCOc1cccc(-c2nc3nnc(NS(=O)(=O)Cc4ccc(F)cc4)cc3n2-c2c(OC)cccc2OC)n1 [Example 122, N-(7-(2,6-Dimethoxyphenyl)-8-(6-ethoxypyridin-2-yl)-7H-imidazo[4,5-c]pyridazinyl)-1-(4-fluorophenyl)methanesulfonamide] | > 9.00 |
| CCOc1cccc(-c2nc3nnc(NS(=O)(=O)Cc4ccc(Cl)cn4)cc3n2-c2c(OC)cccc2OC)n1 [Example 123, 1-(5-Chloropyridin-2-yl)-N-(7-(2,6-dimethoxyphenyl)-8-(6-ethoxypyridin-2-yl)-7H-imidazo[4,5-c]pyridazinyl)methanesulfonamide] | > 9.00 |
| CCOc1cccc(-c2nc3nnc(NS(=O)(=O)Cc4ccc(C)cn4)cc3n2-c2c(OC)cccc2OC)n1 [Example 124, N-(7-(2,6-Dimethoxyphenyl)-8-(6-ethoxypyridin-2-yl)-7H-imidazo[4,5-c]pyridazinyl)-1-(5-methylpyridin-2-yl)methanesulfonamide] | > 9.00 |
| CCOc1cccc(-c2nc3nnc(NS(=O)(=O)Cc4ccc(F)cn4)cc3n2-c2c(OC)cccc2OC)n1 [Example 125, N-(7-(2,6-Dimethoxyphenyl)-8-(6-ethoxypyridin-2-yl)-7H-imidazo[4,5-c]pyridazinyl)-1-(5-fluoropyridin-2-yl)methanesulfonamide] | > 9.00 |
| CCOc1cccc(-c2nc3nnc(NS(=O)(=O)Cc4ncc(C)cn4)cc3n2-c2c(OC)cccc2OC)n1 [Example 126, N-(7-(2,6-Dimethoxyphenyl)-8-(6-ethoxypyridin-2-yl)-7H-imidazo[4,5-c]pyridazinyl)-1-(5-methylpyrimidin-2-yl)methanesulfonamide] | > 9.00 |

The next lines start with the values.

| pEC50 | Structure (SMILES) |
| --- | --- |
| 7.00 to 9.00 | CCOc1cccc(-c2nc3nc(Cl)c(NS(=O)(=O)Cc4ccc(C)cc4F)nc3n2-c2c(OC)cccc2OC)n1 [Example 100, N-(5-Chloro-1-(2,6-dimethoxyphenyl)-2-(6-ethoxypyridin-2-yl)-1H-imidazo[4,5-b]pyrazin-6-yl)-1-(2-fluoro-4-methylphenyl)methanesulfonamide] |
| > 9.00 | CCOc1cccc(-c2nc3nc(Cl)c(NS(=O)(=O)c4ccc(C)cn4)nc3n2-c2c(OC)cccc2OC)n1 [Example 101, N-(5-Chloro-1-(2,6-dimethoxyphenyl)-2-(6-ethoxypyridin-2-yl)-1H-imidazo[4,5-b]pyrazin-6-yl)-5-methylpyridine-2-sulfonamide] |
| > 9.00 | CCOc1cccc(-c2nc3nc(Cl)c(NS(=O)(=O)Cc4ncc(F)cn4)nc3n2-c2c(OC)cccc2OC)n1 [Example 105, N-(5-Chloro-1-(2,6-dimethoxyphenyl)-2-(6-ethoxypyridin-2-yl)-1H-imidazo[4,5-b]pyrazin-6-yl)-1-(5-fluoropyrimidin-2-yl)methanesulfonamide] |
| > 9.00 | CCOc1cccc(-c2nc3nc(Cl)c(NS(=O)(=O)Cc4ccc(C)c(F)c4)nc3n2-c2c(OC)cccc2OC)n1 [Example 107, N-(5-Chloro-1-(2,6-dimethoxyphenyl)-2-(6-ethoxypyridin-2-yl)-1H-imidazo[4,5-b]pyrazin-6-yl)-1-(3-fluoro-4-methylphenyl)methanesulfonamide] |
| > 9.00 | CCOc1cccc(-c2nc3nc(Cl)c(NS(=O)(=O)Cc4ccc(F)cc4)nc3n2-c2c(OC)cccc2OC)n1 [Example 108, N-(5-Chloro-1-(2,6-dimethoxyphenyl)-2-(6-ethoxypyridin-2-yl)-1H-imidazo[4,5-b]pyrazin-6-yl)-1-(4-fluorophenyl)methanesulfonamide] |
| 7.00 to 9.00 | CCOc1cccc(-c2nc3nc(Cl)c(NS(=O)(=O)Cc4ncccn4)nc3n2-c2c(OC)cccc2OC)n1 [Example 109, N-(5-Chloro-1-(2,6-dimethoxyphenyl)-2-(6-ethoxypyridin-2-yl)-1H-imidazo[4,5-b]pyrazin-6-yl)-1-(pyrimidin-2-yl)methanesulfonamide] |
| > 9.00 | CC#CCS(=O)(=O)Nc1nc2c(nc1Cl)nc(-c1cccc(OCC)n1)n2-c1c(OC)cccc1OC [Example 110, N-(5-Chloro-1-(2,6-dimethoxyphenyl)-2-(6-ethoxypyridin-2-yl)-1H-imidazo[4,5-b]pyrazin-6-yl)but-2-yne-1-sulfonamide] |
| 7.00 to 9.00 | CCOc1cccc(-c2nc3nc(Cl)c(NS(=O)(=O)C4CCOCC4)nc3n2-c2c(OC)cccc2OC)n1 [Example 111, N-(5-Chloro-1-(2,6-dimethoxyphenyl)-2-(6-ethoxypyridin-2-yl)-1H-imidazo[4,5-b]pyrazin-6-yl)tetrahydro-2H-pyran-4-sulfonamide] |
| > 9.00 | CCOc1cccc(-c2nc3nc(Cl)c(NS(=O)(=O)N(C)C4CC4)nc3n2-c2c(OC)cccc2OC)n1 [Example 112, N-(5-Chloro-1-(2,6-dimethoxyphenyl)-2-(6-ethoxypyridin-2-yl)-1H-imidazo[4,5-b]pyrazin-6-yl)-N′-methyl-N′-cyclopropylsulfamide] |
| 7.00 to 9.00 | CCOc1cccc(-c2nc3nc(Cl)c(NS(=O)(=O)CC4(O)CC4)nc3n2-c2c(OC)cccc2OC)n1 [Example 113, N-(5-Chloro-1-(2,6-dimethoxyphenyl)-2-(6-ethoxypyridin-2-yl)-1H-imidazo[4,5-b]pyrazin-6-yl)-1-(1-hydroxycyclopropyl)methanesulfonamide] |
| 7.00 to 9.00 | CCOc1cccc(-c2nc3nc(Cl)c(NS(=O)(=O)Cc4ccc(C)cn4)nc3n2-c2c(OC)cccc2OC)n1 [Example 114, N-(5-Chloro-1-(2,6-dimethoxyphenyl)-2-(6-ethoxypyridin-2-yl)-1H-imidazo[4,5-b]pyrazin-6-yl)-1-(5-methylpyridin-2-yl)methanesulfonamide] |
| > 9.00 | CCOc1cccc(-c2nc3nc(Cl)c(NS(=O)(=O)C[C@H]4C[C@](C)(O)C4)nc3n2-c2c(OC)cccc2OC)n1 [Example 115, N-(5-Chloro-1-(2,6-dimethoxyphenyl)-2-(6-ethoxypyridin-2-yl)-1H-imidazo[4,5-b]pyrazin-6-yl)-1-((1r,3r)-3-hydroxymethylcyclobutyl) methanesulfonamide] |
